Consider 37 molecules from paper PMC12459614 (European journal of medicinal chemistry, 2025).

Test [1] deals with T1, hGPR17L (Homo sapiens, UniProt Q13304). Kind of test: Calcium mobilization assay. It counts as cell-based. Conditions: for Emax: 1321-N1, read-out: % Efficacy Avg ± SEM; for antagonist activity at GPR17: calcium mobilization assay, data not shown; for IC50 / Calcium assay IC50(μM) Avg ± SEM: reported only when efficacy ≥75%.
Test [2] deals with T1, hGPR17L. Put plainly: cAMP signaling in GLUTag cells expressing hGPR17L. The conditions noted are these: for attenuation of MDL-mediated inhibition of forskolin-stimulated cAMP: 10 μM compound, 100 nM MDL, 10 μM forskolin. It is filed as cell-based.
Another test has as its system GPR17. The conditions noted are these: cited from earlier work.
Test [3] addresses T1, hGPR17L. Put plainly: GLP-1 secretion assay in GLUTag cells expressing hGPR17L. It is filed as cell-based. Conditions: 10 μM compound; 6.3 μM MDL; 10 μM forskolin and 10 μM IBMX.
Setting [4] is: Calcium assay IC50(μM) Avg ± SEM, Table 3.
The mark [5] stands for this setting: Calcium Assay IC50(μM) Avg ± SEM, Table 2.

SMILES strings stand for the structures.

T1 sequence (Q13304 whole entry): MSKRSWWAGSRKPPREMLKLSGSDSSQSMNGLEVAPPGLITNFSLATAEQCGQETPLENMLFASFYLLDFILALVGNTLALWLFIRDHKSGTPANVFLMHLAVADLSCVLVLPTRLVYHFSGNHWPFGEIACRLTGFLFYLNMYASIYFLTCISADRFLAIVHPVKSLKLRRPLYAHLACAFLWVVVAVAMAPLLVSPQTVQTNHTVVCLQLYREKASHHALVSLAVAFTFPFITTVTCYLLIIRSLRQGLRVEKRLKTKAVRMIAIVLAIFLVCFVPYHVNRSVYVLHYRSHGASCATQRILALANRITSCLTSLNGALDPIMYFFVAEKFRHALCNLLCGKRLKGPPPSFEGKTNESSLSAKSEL

Regarding `O=C(NC1CCCc2c1[nH]c1c(Cl)cccc21)c1c(F)cc([N+](=O)[O-])cc1F` (centres unmarked) [Compd 12, N-(8-chloro-2,3,4,9-tetrahydro-1H-carbazol-1-yl)-2,6-difluoro-4-nitrobenzamide], the Emax at hGPR17L [1] is 44.3 ± 3.47%.

Regarding `CC(=O)Oc1cc2c(s1)CCN(C(C(=O)C1CC1)c1ccccc1F)C2` (centres unmarked) [prasugrel, reference compound], at hGPR17L [1], the “antagonist activity at GPR17” value is on record as “do not observe antagonist activity”.

Consider `COc1ccc(C(=O)NC2CCCc3c2[nH]c2c(C)ccc(C)c32)cc1OC` (centres unmarked) [Compd 23, N-(5,8-dimethyl-2,3,4,9-tetrahydro-1H-carbazol-1-yl)-3,4-dimethoxybenzamide], for which the Emax on hGPR17L [1] worked out at 83.7 ± 2.39%. Besides, at hGPR17L [1] (setting [4]), the IC50 worked out at 11.8 ± 0.5 µM.

Consider `COc1cc(OC)cc(C(=O)NC2CCCc3c2[nH]c2c(Br)cccc32)c1` (centres unmarked) [Compd 20, N-(8-bromo-2,3,4,9-tetrahydro-1H-carbazol-1-yl)-3,5-dimethoxybenzamide], for which, on hGPR17L [1], the Emax came out at 55.5 ± 1.74%.

For `COc1ccc(C(=O)NC2CCCc3c2[nH]c2c(C)cc(C)cc32)cc1OC` (centres unmarked) [Compd 21, N-(6,8-Dimethyl-2,3,4,9-tetrahydro-1H-carbazol-1-yl)-3,4-dimethoxybenzamide], the “attenuation of MDL-mediated inhibition of forskolin-stimulated cAMP” value at hGPR17L [2] is “significantly attenuated”. Moreover, at hGPR17L [1], the Emax worked out at 87.5 ± 0.92%. In addition, the half-maximal inhibitory concentration (IC50) at hGPR17L [1] (setting [4]) came to 12.2 ± 0.5 µM.

Take `CN(C)C(=O)CCSC(SCCC(=O)O)c1cccc(/C=C/c2ccc3ccc(Cl)cc3n2)c1` (centres unmarked) [MK571, reference compound]: at hGPR17L [1], the “antagonist activity at GPR17” value is “no antagonist activity”.

For `COc1ccc(C(=O)NC2CCCc3c2[nH]c2c(Cl)cccc32)cc1S(C)(=O)=O` (centres unmarked) [Compd 5, N-(8-Chloro-2,3,4,9-tetrahydro-1H-carbazol-1-yl)-4-methoxy-3-(methylsulfonyl)benzamide], the Emax at hGPR17L [1] came out at 50.6 ± 3.54%.

Regarding `O=C(NC1CCCc2c1[nH]c1c(Cl)cccc21)c1ccc(Br)cc1` (centres unmarked) [Compd 16, 4-Bromo-N-(8-chloro-2,3,4,9-tetrahydro-1H-carbazol-1-yl)benzamide], the Emax on hGPR17L [1] worked out at 40.4 ± 4.47%.

As for `COc1ccc(C(=O)NC2CCCc3c2[nH]c2c(Cl)cccc32)cc1C` (centres unmarked) [Compd 4, N-(8-Chloro-2,3,4,9-tetrahydro-1H-carbazol-1-yl)-4-methoxy-3-methylbenzamide], at hGPR17L [1], the Emax came out at 81.5 ± 1.23%. On hGPR17L [1] (setting [5]), the IC50 stood at 10.7 ± 0.29 µM.

With `COc1ccc(C(=O)NC2CCCc3c2[nH]c2cc(C(=O)O)ccc32)cc1OC` (centres unmarked) [Compd 25, 1-(3,4-Dimethoxybenzamido)-2,3,4,9-tetrahydro-1H-carbazole-7-carboxylic acid], the “Calcium assay IC50(μM) Avg ± SEM” value at hGPR17L [1] (Table 3) is “inactive”.

Turning to `O=C(O)c1ccc(OCCCc2ccc(OCCCCOc3ccccc3)cc2)c(C(=O)NC2CCCC(C(=O)O)C2)c1` (centres unmarked) [BayCysLT2, reference compound], the “antagonist activity at GPR17” value at hGPR17L [1] is “full antagonist activity”. In addition, the “block of MDL-stimulated receptor activation of GPR17” value in the test on GPR17 is listed as “completely”.

`Cc1cc([N+](=O)[O-])ccc1C(=O)NC1CCCc2c1[nH]c1c(Cl)cccc21` (centres unmarked) [Compd 11, N-(8-Chloro-2,3,4,9-tetrahydro-1H-carbazol-1-yl)-2-methyl-4-nitrobenzamide]: at hGPR17L [1], the Emax stood at 29.8 ± 1.21%.

Consider `O=C(NC1CCCc2c1[nH]c1c(Cl)cccc21)C(NS(=O)(=O)c1cccs1)c1ccccc1` (centres unmarked) [Compd 14, N-(8-Chloro-2,3,4,9-tetrahydro-1H-carbazol-1-yl)-2-phenyl-2-(thiophene-2-sulfonamido)acetamide], for which the Emax at hGPR17L [1] worked out at 104 ± 9.32%. Moreover, the IC50 at hGPR17L [1] (setting [5]) was 7.94 ± 0.49 µM.

Take `COc1ccc(C(=O)NC2CCCc3c2[nH]c2c(C(=O)O)cccc32)cc1OC` (centres unmarked) [Compd 24, 1-(3,4-Dimethoxybenzamido)-2,3,4,9-tetrahydro-1H-carbazole-8-carboxylic acid]: the “Calcium assay IC50(μM) Avg ± SEM” value on hGPR17L [1] (Table 3) was “inactive”.

For the molecule `O=C(NC1CCCc2c1[nH]c1c(Cl)cccc21)c1ccc(F)c([N+](=O)[O-])c1` (centres unmarked) [Compd 13, N-(8-chloro-2,3,4,9-tetrahydro-1H-carbazol-1-yl)-4-fluoro-3-nitrobenzamide], on hGPR17L [1], the Emax is 101 ± 9.98%. For the same molecule, the IC50 at hGPR17L [1] (setting [5]) was 11.6 ± 1.19 µM.

`COc1cccc(-c2ccccc2-c2ccc(C(=O)Nc3ccc(OC)cc3C(=O)O)o2)c1` [PSB-22269]: the “potency in a binding assay and functional assays” value in the test on GPR17 is “nanomolar range potency”.

As for `CC(C)(O)c1ccccc1CC[C@@H](SCC1(CC(=O)O)CC1)c1cccc(/C=C/c2ccc3ccc(Cl)cc3n2)c1` [montelukast, reference compound], the “antagonist activity at GPR17” value on hGPR17L [1] is “partial antagonist activity”. Also, the “block of MDL-stimulated receptor activation of GPR17” value with GPR17 is listed as “partially”.

With `COc1cc(C(=O)NC2CCCc3c2[nH]c2c(Cl)cccc32)ccc1F` (centres unmarked) [Compd 9, N-(8-Chloro-2,3,4,9-tetrahydro-1H-carbazol-1-yl)-4-fluoro-3-methoxybenzamide], the Emax on hGPR17L [1] was found to be 90.3 ± 7.04%. The IC50 at hGPR17L [1] (setting [5]) stood at 12.6 ± 0.89 µM.

Take `CCCSc1nc(N[C@@H]2C[C@H]2c2ccc(F)c(F)c2)c2nnn([C@@H]3C[C@H](OCCO)[C@@H](O)[C@H]3O)c2n1` [ticagrelor]: the “block of MDL-stimulated receptor activation” value in the test with GPR17 is given as “failed to block”.

Take `COc1cc(C(=O)NS(=O)(=O)c2ccccc2C)ccc1Cc1cn(C)c2ccc(NC(=O)OC3CCCC3)cc12` [zafirlukast, reference compound]: at hGPR17L [1], the “antagonist activity at GPR17” value is “full antagonist activity”.

Turning to `COc1ccc(C(=O)NC2CCCc3c2[nH]c2c(Br)cccc32)cc1OC` (centres unmarked) [Compd 19, N-(8-Bromo-2,3,4,9-tetrahydro-1H-carbazol-1-yl)-3,4-dimethoxybenzamide], the Emax at hGPR17L [1] turned out to be 125 ± 4.3%. In addition, the IC50 at hGPR17L [1] (setting [4]) came to 4.29 ± 0.48 µM.

Turning to `COc1cc(OC)cc(C(=O)NC2CCCc3c2[nH]c2c(C)cc(C)cc32)c1` (centres unmarked) [Compd 22, N-(6,8-Dimethyl-2,3,4,9-tetrahydro-1H-carbazol-1-yl)-3,5-dimethoxybenzamide], the Emax at hGPR17L [1] came out at 68.2 ± 1.59%.

`C=C[C@@]1(C)CC(=O)[C@]2(O)[C@@]3(C)[C@@H](O)CCC(C)(C)[C@@H]3[C@H](O)[C@H](OC(C)=O)[C@@]2(C)O1` [Forskolin, forskolin, reference compound]: the “cAMP levels after forskolin stimulation” value at hGPR17L [2] (forskolin alone, basal 0.59 ± 0.04 nM) was 4.7 ± 0.36 nM.

`Cc1cc(C(=O)NC2CCCc3c2[nH]c2c(Cl)cccc32)ccc1Br` (centres unmarked) [Compd 10, 4-Bromo-N-(8-chloro-2,3,4,9-tetrahydro-1H-carbazol-1-yl)-3-methylbenzamide]: the Emax on hGPR17L [1] was 52.8 ± 2.26%.

Take `Clc1ccccc1CN1CCc2sccc2C1` [ticlopidine, reference compound]: the “antagonist activity at GPR17” value at hGPR17L [1] is given as “do not observe antagonist activity”.

Consider `O=C(NC1CCCc2c1[nH]c1c(Cl)cccc21)c1ccc([N+](=O)[O-])c([N+](=O)[O-])c1` (centres unmarked) [Compd 8, N-(8-Chloro-2,3,4,9-tetrahydro-1H-carbazol-1-yl)-3,4-dinitrobenzamide], for which, at hGPR17L [2], the “attenuation of MDL-mediated inhibition of forskolin-stimulated cAMP” value is “significantly attenuated”. Moreover, the Emax on hGPR17L [1] was found to be 74.1 ± 2.16%.

As for `COc1cc(C(=O)NC2CCCc3c2[nH]c2c(Cl)cccc32)cc(OC)c1OC` (centres unmarked) [Compd 2, N-(8-Chloro-2,3,4,9-tetrahydro-1H-carbazol-1-yl)-3,4,5-trimethoxybenzamide], the Emax on hGPR17L [1] came out at 47.4 ± 3.11%.

Consider `O=C(NC1CCCc2c1[nH]c1c(Cl)cccc21)c1ccc2c(c1)OCO2` (centres unmarked) [Compd 3, N-(8-Chloro-2,3,4,9-tetrahydro-1H-carbazol-1-yl)benzo[d][1,3]dioxole-5-carboxamide], for which the Emax at hGPR17L [1] was 77.4 ± 3.46%. The IC50 on hGPR17L [1] (setting [5]) is 11.4 ± 0.59 µM.

`Cc1ccc(C(=O)NC2CCCc3c2[nH]c2c(Cl)cccc32)cc1` (centres unmarked) [Compd 17, N-(8-chloro-2,3,4,9-tetrahydro-1H-carbazol-1-yl)-4-methylbenzamide]: the Emax at hGPR17L [1] is 62.6 ± 4.84%.

Take `COc1ccc(C(=O)NC2CCCc3c2[nH]c2ccccc32)cc1OC` (centres unmarked) [Compd 18, 3,4-Dimethoxy-N-(2,3,4,9-tetrahydro-1H-carbazol-1-yl)benzamide]: the Emax at hGPR17L [1] stood at 72.1 ± 4.2%. Further, the IC50 at hGPR17L [1] (setting [4]) was 9.44 ± 1.25 µM.

As to `CS(=O)(=O)c1ccc(C(=O)NC2CCCc3c2[nH]c2c(Cl)cccc32)cc1[N+](=O)[O-]` (centres unmarked) [Compd 7, N-(8-Chloro-2,3,4,9-tetrahydro-1H-carbazol-1-yl)-4-(methylsulfonyl)-3-nitrobenzamide], the Emax at hGPR17L [1] stood at 117 ± 6.08%. The IC50 at hGPR17L [1] (setting [5]) was 4.42 ± 0.34 µM.

Consider `COC(=O)[C@H](c1ccccc1Cl)N1CCc2sccc2C1` [clopidogrel, reference compound], for which the “antagonist activity at GPR17” value at hGPR17L [1] is recorded as “do not observe antagonist activity”.

Take `CS(=O)(=O)c1ccc(C(=O)NC2CCCc3c2[nH]c2c(Cl)cccc32)cc1F` (centres unmarked) [Compd 6, N-(8-Chloro-2,3,4,9-tetrahydro-1H-carbazol-1-yl)-3-fluoro-4-(methylsulfonyl)benzamide]: the Emax at hGPR17L [1] was 38 ± 2.73%.

For the molecule `O=C(O)c1ccc(C(=O)NC2CCCc3c2[nH]c2c(Cl)cccc32)cc1` (centres unmarked) [Compd 15, 4-((8-Chloro-2,3,4,9-tetrahydro-1H-carbazol-1-yl)carbamoyl)benzoic acid], the “attenuation of MDL-mediated inhibition of forskolin-stimulated cAMP” value at hGPR17L [2] was “significantly attenuated”. Further, the “attenuation of MDL-mediated inhibition of GLP-1 secretion” value on hGPR17L [3] is given as “significantly attenuated”. Further, at hGPR17L [1], the Emax is 49.4 ± 2.45%.

`CSCCNc1nc(SCCC(F)(F)F)nc2c1ncn2[C@@H]1O[C@H](COP(=O)(O)OP(=O)(O)C(Cl)(Cl)P(=O)(O)O)[C@@H](O)[C@H]1O` [cangrelor]: the “block of MDL-stimulated receptor activation” value in the test with GPR17 is reported as “failed to block”.

Regarding `COc1ccc(C(=O)NC2CCCc3c2[nH]c2ccc(C(=O)O)cc32)cc1OC` (centres unmarked) [Compd 26, 1-(3,4-Dimethoxybenzamido)-2,3,4,9-tetrahydro-1H-carbazole-6-carboxylic acid], the “Calcium assay IC50(μM) Avg ± SEM” value on hGPR17L [1] (Table 3) is “inactive”.

`CCCc1c(OCCCCc2nnn[nH]2)ccc(C(C)=O)c1O` [tomelukast, reference compound]: the “antagonist activity at GPR17” value on hGPR17L [1] was “partial antagonist activity”.
